Measured values as given in patent publication US5004742A, “Benzothiazine-1,1-dioxide derivatives” (Nippon Hypox Laboratories Incorporated, priority 1989, dated 1991).

Assays:
[1] = target: T1, hyaluronidase taken from bovine testicles (Bos taurus, UniProt Q2YDK3); assay: Effect on hyaluronidase activity; format: biochemical; conditions: concentration range 0.01-0.3 mM; bovine testicular hyaluronidase, pH 3.5
T1 construct: purchased Sigma Co; host or cells: bovine testicles
T1 sequence (Q2YDK3 36-553): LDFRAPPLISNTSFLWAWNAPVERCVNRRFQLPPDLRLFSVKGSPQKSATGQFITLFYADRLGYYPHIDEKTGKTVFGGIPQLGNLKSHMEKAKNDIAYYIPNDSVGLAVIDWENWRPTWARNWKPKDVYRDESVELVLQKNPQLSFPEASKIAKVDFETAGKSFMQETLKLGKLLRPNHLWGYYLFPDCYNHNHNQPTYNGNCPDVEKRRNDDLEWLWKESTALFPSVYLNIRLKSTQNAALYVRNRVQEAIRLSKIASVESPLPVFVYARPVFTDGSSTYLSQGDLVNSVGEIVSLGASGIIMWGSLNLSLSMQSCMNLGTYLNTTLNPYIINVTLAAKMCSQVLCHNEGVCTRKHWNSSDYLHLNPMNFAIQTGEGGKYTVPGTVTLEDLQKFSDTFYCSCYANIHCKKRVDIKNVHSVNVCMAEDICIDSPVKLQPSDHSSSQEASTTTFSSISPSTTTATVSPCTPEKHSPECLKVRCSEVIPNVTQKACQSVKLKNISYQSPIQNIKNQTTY
Protocol: 0.8 mg/ml of a hyaluronidase (a product of Sigma Co.) taken from bovine testicles was used as an enzyme. Test compounds (compound Nos. 1, 2, 4, 7, 8, 9 and 13) were dissolved at various concentrations in a 1 M acetate buffer (pH 3.5) and heated at 37° C. for 20 minutes. Then, calcium chloride was added to each of the resulting solutions so that the calcium chloride concentration became 5 mM, and each of the resulting mixtures was heated at 37° C. for 20 minutes.
Thereto was added potassium hyaluronate so that its concentration in the buffer became 2.4 mg/ml, and the mixture was heated at 37° C. for 40 minutes.
After the termination of the reaction, the amount of the substrate hydrolyzed was determined at 585 nm using the Elson-Morgan's procedure, from which there were determined the effects of each test compound at various concentrations on the normal enzymatic reaction.

[2] = system: rat gastric mucosa; format: in vivo; conditions: 50 mg/kg p.o.
Protocol: The compound No. 1 of the present invention and two known cyclooxygenase inhibitors, i.e. Indometacin and Piroxicam were examined for action on rat gastric mucosa. That is, the compound No. 1, Indometacin or Piroxicam was administered orally to male SD rats (body weight: 200-250 g) which had been fasted for 24 hours. After the administration, the rats were allowed to no food and no water for 48 hours. Then, the stomach of each rat was removed under ether anesthesia and fixed with formalin. The resulting stomach was incised and the length of the mucous ulcer generated in the glandular portion of the stomach was measured using a dissecting microscope (magnification of 10).

[3] = system: male ddy mice; assay: Acute toxicity by intravenous injection; format: in vivo; conditions: 10-500 mg/kg, 10 mice per group
Protocol: The compound of the present invention was further tested for acute toxicity by intravenous injection using male ddy mice. There was no death when the compound No. 1 of the present invention was administered in an amount of 10-500 mg/kg (each group consisted of 10 mice).

[4] = system: rat peritoneal mast cells; assay: Histamine liberation from rat peritoneal mast cells by concanavalin A; format: cell-based; conditions: Mast cell, test compound 0.2 mM, phosphatidylserine 3.0 μg/ml
Protocol: This test was effected in accordance with the method of R. P. Siraganian [J. Immunol., 114, 886 (1974)]. That is, a Locke solution containing phosphatidylserine, a test compound and a suspension of rat peritoneal mast cells was heated for 20 minutes at 37° C. Incidentally, the concentrations of phosphatidylserine and the test compound in the Locke solution were 3.0 μg/ml and 0.2 mM, respectively. A concanavalin A solution was added to the Locke solution, and the mixture was subjected to a reaction for 10 minutes at 37° C. After ice-cooling, the reaction mixture was subjected to centrifugation for 10 minutes at 4° C. Both the supernatant and the precipitate were measured for histamine content by the method of Shore et al. [J. Exp. Ther., 127, 182 (1959)] to determine a ratio of histamine liberated.

[5] = system: rat plantar edema induced by carrageenin; assay: Action against rat plantar edema induced by carrageenin; format: in vivo
Protocol: Male Sprague-Dawley rats weighing 200-250 g were injected s.c. (subcutaneously) with 0.1 ml of carrageenin into the subplantar region of the right hind paw. 60 minutes before the carrageenin administration, a test compound (compound No. 1) had been administered p.o. (orally). […] Thus, the anti-inflammatory effect of the compound of the present invention was proven in this animal test.

[6] = system: rat 48-hour homologous PCA reaction; assay: Rat 48-hour homologous PCA reaction; format: in vivo; conditions: 200 mg/kg p.o. 60 minutes before antigen; for Amount of colorant which leaked out: control 9.7 ± 1.9
Protocol: Male SD rats weighing 200-250 g were injected with 0.1 ml of a rat anti-egg albumin serum diluted with a physiological saline solution, intradermally at the back in order to passively sensitize the rats. After 48 hours, 0.5 ml of 1% Evans Blue containing 5 mg of antigen (egg albumin) was administered intravenously. After 30 minutes, each rat was sacrificed by bleeding and the skin was peeled off. Then, the amount of the coloring material in the lesion was determined by the method of Katayama et al. [Microbial. Immunol., 122 (2), 89 (1987)]. Incidentally, each test compound had been administered orally 60 minutes before the antigen administration.

[7] = target: T1, hyaluronidase taken from bovine testicles; conditions: Chem. Pharm. Bull., 33 (9), 3738 (1985), read-out: "50% enzyme inhibition" concentration; cited from earlier work
[8] = system: rat peritoneal mast cells; conditions: 0.3 mM; concanavalin A; Chem. Pharm. Bull., 33 (9), 3738 (1985); cited from earlier work

Q: Which “effect on hyaluronidase activity” value [1] does the source give for `CN1C(C(=O)Nc2ccccc2)=C(O)c2ccccc2S1(=O)=O` [4-hydroxy-2-methyl-N-(phenyl)-2H-1,2-benzothiazine-3-carboxamido-1,1-dioxide] here?
A: no effect

Q: With `COc1ccc2c(c1)c(CC(=O)O)c(C)n2C(=O)c1ccc(Cl)cc1` [Indometacin] as the compound, how does the “ulcer formation, in words” value [2] read?
A: very serious ulcer

Q: What about the “Ulcer index mean S.E.” value ([2]; rats fasted 24 hours, 48 hours after administration) of the same compound?
A: 42.8 ± 8.7

Q: Which results are given for `CN1C(C(=O)Nc2ccccc2-c2nn[nH]n2)=C(O)c2ccccc2S1(=O)=O` [No. 1, 4-hydroxy-2-methyl-N-[2'-(tetrazo-5"-yl)phenyl]-2H-1,2-benzothiazine-3-carboxamido-1,1-dioxide]?
A: death in acute toxicity test [3]: no death; inhibition at 200 µM [4]: 93.9%; swelling percent ([5]; 200 mg/kg p.o. 60 min before carrageenin, 30 minutes after carrageenin administration, control 18.2%): 8.0%; inhibition (%) of edema, in words ([5]; 200 mg/kg p.o., 1, 1.5, 2 and 3 hours after carrageenin administration): About the same inhibition; inhibition of edema ([5]; 200 mg/kg p.o., 30 minutes after carrageenin administration): 54%; Suppression (%) [6]: 65.1%; Amount of colorant which leaked out [6]: 3.4 ± 1.3 μg/site

Q: Which inhibition at 200 µM [4] does the source give for `CN1C(C(=O)Nc2ccccc2C(=O)O)=C(O)c2ccccc2S1(=O)=O` [No. 2, 4-Hydroxy-2-methyl-N-(2'-carboxyphenyl)-2H-1,2-benzothiazine-3-carboxamido-1,1-dioxide] here?
A: 81.3%

Q: What about the “Suppression (%)” value [6] of the same compound?
A: 29.3%

Q: What about the “Amount of colorant which leaked out” value [6] of the same compound?
A: 6.8 ± 2.3 μg/site

Q: For `CN1C(C(=O)Nc2ccc(Cl)cc2C(=O)O)=C(O)c2ccccc2S1(=O)=O` [No. 3, 4-Hydroxy-2-methyl-N-(2'-carboxy-4'-chlorophenyl)-2H-1,2-benzothiazine-3-carboxamido-1,1-dioxide], which inhibition at 200 µM [4] is on record?
A: 65%

Q: With `CN1C(C(=O)Nc2cc(Cl)ccc2C(=O)O)=C(O)c2ccccc2S1(=O)=O` [No. 4, 4-Hydroxy-2-methyl-N-(2'-carboxy-5'-chlorophenyl)-2H-1,2-benzothiazine-3-carboxamido-1,1-dioxide] as the compound, how does the inhibition at 200 µM [4] read?
A: 85.1%

Q: Which inhibition at 200 µM [4] does the source give for `Cc1cccc(NC(=O)C2=C(O)c3ccccc3S(=O)(=O)N2C)c1C(=O)O` [No. 5, 4-Hydroxy-2-methyl-N-(2'-carboxy-3'-methylphenyl)-2H-1,2-benzothiazine-3-carboxamido-1,1-dioxide] here?
A: 85.2%

Q: For `Cc1ccc(NC(=O)C2=C(O)c3ccccc3S(=O)(=O)N2C)c(C(=O)O)c1` [No. 6, 4-Hydroxy-2-methyl-N-(2'-carboxy-4'-methylphenyl)-2H-1,2-benzothiazine-3-carboxamido-1,1-dioxide], which inhibition at 200 µM [4] is on record?
A: 63%

Q: With `CN1C(C(=O)Nc2ccc(O)cc2C(=O)O)=C(O)c2ccccc2S1(=O)=O` [No. 7, 4-Hydroxy-2-methyl-N-(2'-carboxy-4'-hydroxyphenyl)-2H-1,2-benzothiazine-3-carboxamido-1,1-dioxide] as the compound, how does the inhibition at 200 µM [4] read?
A: 86%

Q: For `CN1C(C(=O)Nc2c(O)cccc2C(=O)O)=C(O)c2ccccc2S1(=O)=O` [No. 8, 4-Hydroxy-2-methyl-N-(2'-carboxy-6'-hydroxyphenyl)-2H-1,2-benzothiazine-3-carboxamido-1,1-dioxide], which inhibition at 200 µM [4] is on record?
A: 83.7%

Q: Which inhibition at 200 µM [4] does the source give for `CN1C(C(=O)Nc2cc([N+](=O)[O-])ccc2C(=O)O)=C(O)c2ccccc2S1(=O)=O` [No. 9, 4-Hydroxy-2-methyl-N-(2'-carboxy-5'-nitrophenyl)-2H-1,2-benzothiazine-3-carboxamido-1,1-dioxide] here?
A: 106%

Q: For `CN1C(C(=O)Nc2cccc(C(=O)O)c2)=C(O)c2ccccc2S1(=O)=O` [No. 10, 4-Hydroxy-2-methyl-N-(3'-carboxyphenyl)-2H-1,2-benzothiazine-3-carboxamido-1,1-dioxide], which inhibition at 200 µM [4] is on record?
A: 90.7%

Q: With `CN1C(C(=O)Nc2ccc(C(=O)O)cc2)=C(O)c2ccccc2S1(=O)=O` [No. 11, 4-Hydroxy-2-methyl-N-(4'-carboxyphenyl)-2H-1,2-benzothiazine-3-carboxamido-1,1-dioxide] as the compound, how does the inhibition at 200 µM [4] read?
A: 60.3%

Q: For `CN1C(C(=O)Nc2ccccn2)=C(O)c2ccccc2S1(=O)=O` [Piroxicam], which “effect on hyaluronidase activity” value [1] is on record?
A: no effect

Q: For `COc1ccc(/C=C/C(=O)Nc2ccccc2C(=O)O)cc1OC` [Tranilast], which IC50 [7] is on record?
A: ~230 µM

Q: And the “inhibition of histamine liberation” value [8]?
A: about 20%
